For this assay, the system named is azoxymethane (AOM)-induced aberrant crypt foci (ACF) in colon. Briefly: Cancer prevention evaluation: AOM-induced colon aberrant crypt foci (ACF) in rats. Type of assay: in vivo. The conditions noted are these: male F344 rats, 4 weeks; for number of formation of ACF compared with the control group: AOM 15 mg/kg s.c. once a week over two weeks. On the procedure: 6-week-old male F344 rats were divided into 3 groups (2 treated groups and 1 control group; each group consisted of 9 rats) and a colon carcinogen azoxymethane (AOM) was injected subcutaneously at the dose of 15 mg/kg body weight once a week over two weeks. From the day before injection of AOM, to the treated groups, coenzyme Q10 (Kaneka Q10, Kaneka Corporation) was fed together with feed at the concentration of 200 or 500 ppm, respectively. 4 weeks later, aberrant crypt foci (ACF), which is a precancerous change in colon cancer, was analyzed. After the rats were sacrificed, the colons (from the cecum to rectum) were enucleated and fixed using a 10% neutral buffered formalin. After the fixation, the colons were washed with a phosphate buffered-saline and stained with a 0.2% methylene blue-containing phosphate buffered-saline. Then, the number and size of ACF were measured using a microscope. […] As observed above, it was made clear that coenzyme Q10 has an effect for inhibiting the initial stage of AOM-induced formation of colon ACF, which is a precancerous change of colon cancer.

SMILES strings stand for the structures.

This is an account of results in US20100150894A1, “COMPOSITION FOR PREVENTION OF CANCER” (Kaneka Corporation, priority 2005, published 2010).

With `COC1=C(OC)C(=O)C(C/C=C(\C)CC/C=C(\C)CC/C=C(\C)CC/C=C(\C)CC/C=C(\C)CC/C=C(\C)CC/C=C(\C)CC/C=C(\C)CC/C=C(\C)CCC=C(C)C)=C(C)C1=O` [coenzyme Q10], the “number of formation of ACF compared with the control group” value by setting is: (coenzyme Q10 200 ppm in feed) 76.6%; (coenzyme Q10 500 ppm in feed, p<0.01) 68.0%. Further, the “size difference in ACF between control group and treated groups” value (AOM-induced, coenzyme Q10 200 or 500 ppm in feed) was “not recognized”.
